Data as given in patent US20130012546A1 (priority 2009, published 2013).

What was measured:
Phytophthora infestans = format: in vivo; conditions: tomato plants, preventive spray, 100 ppm of active ingredient, evaluated 7 days after inoculation
logP(HCOOH) by HPLC = format: physicochemical; conditions: HPLC on reversed phase columns, pH 2.7, 0.1% formic acid in water / acetonitrile, linear gradient 10% to 95% acetonitrile; EEC directive 79/831 Annex V.A8

**Q.** For `Cc1nnnn1C(=NOCc1cccc(NC(=O)OCC2CC2)n1)c1ccccc1` [Example 17], which Efficacy % (Phytophthora infestans) is on record?
**A.** 93%

**Q.** What about the log p (logP(HCOOH) by HPLC) of the same molecule?
**A.** 3.52

**Q.** For `Cc1nnnn1C(=NOCc1cccc(NC(=O)COC2CCCCC2)n1)c1ccccc1` [Example 79], which Efficacy % (Phytophthora infestans) is on record?
**A.** 90%

**Q.** What about the log p (logP(HCOOH) by HPLC) of the same molecule?
**A.** 4.25

**Q.** For `CC(C)=NOC(C)C(=O)Nc1cccc(CO/N=C(/c2ccccc2)c2nnnn2C)n1` (stereo not shown) [Example 32], which Efficacy % (Phytophthora infestans) is on record?
**A.** 70%

**Q.** What about the log p (logP(HCOOH) by HPLC) of the same molecule?
**A.** 3.25

**Q.** Which results are given for `Cc1nnnn1C(=NOCc1cccc(NC(=O)OCCC2CCCCC2)n1)c1ccccc1` [Example 15]?
**A.** Efficacy % (Phytophthora infestans): 95%; log p (logP(HCOOH) by HPLC): 5.19

**Q.** For `C=CCCOCC(=O)Nc1nc(CO/N=C(/c2ccccc2)n2nnnc2C)cs1` [Example 44], which Efficacy % (Phytophthora infestans) is on record?
**A.** 93%

**Q.** And the log p (logP(HCOOH) by HPLC)?
**A.** 3.23

**Q.** For `Cc1nnnn1C(=NOCc1csc(NC(=O)OCC2CC2)n1)c1ccccc1` [Example 26], which Efficacy % (Phytophthora infestans) is on record?
**A.** 70%

**Q.** And the log p (logP(HCOOH) by HPLC)?
**A.** 3.27

**Q.** With `C=CCCCOCC(=O)Nc1cccc(CON=C(c2ccccc2)c2nnnn2C)n1` [Example 5] as the molecule, how does the Efficacy % (Phytophthora infestans) read?
**A.** 95%

**Q.** And the log p (logP(HCOOH) by HPLC)?
**A.** 3.78

**Q.** Which results are given for `Cc1nnnn1C(=NOCc1cccc(NC(=O)COC2CCCCCC2)n1)c1ccccc1` [Example 88]?
**A.** Efficacy % (Phytophthora infestans): 95%; log p (logP(HCOOH) by HPLC): 4.67

**Q.** Which Efficacy % (Phytophthora infestans) does the source give for `CC(C)=NOC(C)C(=O)Nc1nc(CO/N=C(/c2ccccc2)n2nnnc2C)cs1` (stereo not shown) [Example 38] here?
**A.** 88%

**Q.** What about the log p (logP(HCOOH) by HPLC) of the same molecule?
**A.** 3.17

**Q.** Which results are given for `C#CCOC(C)C(=O)Nc1cccc(CO/N=C(/c2ccccc2)c2nnnn2C)n1` (stereo not shown) [Example 50]?
**A.** Efficacy % (Phytophthora infestans): 95%; log p (logP(HCOOH) by HPLC): 3.04

**Q.** What does the source list for `Cc1nnnn1C(=NOCc1csc(NC(=O)C(C)OC2CCCCCC2)n1)c1ccccc1` (stereo not shown) [Example 96]?
**A.** Efficacy % (Phytophthora infestans): 98%; log p (logP(HCOOH) by HPLC): 4.58

**Q.** For `Cc1nnnn1C(=NOCc1cccc(NC(=O)OCCCC2CCCC2)n1)c1ccccc1` [Example 21], which Efficacy % (Phytophthora infestans) is on record?
**A.** 95%

**Q.** What about the log p (logP(HCOOH) by HPLC) of the same molecule?
**A.** 5.25

**Q.** For `Cc1nnnn1C(=NOCc1cccc(NC(=O)OCCCC2CCCCC2)n1)c1ccccc1` [Example 19], which Efficacy % (Phytophthora infestans) is on record?
**A.** 95%

**Q.** What about the log p (logP(HCOOH) by HPLC) of the same molecule?
**A.** 5.62

**Q.** What does the source list for `CC(=NOCC(=O)Nc1nc(CON=C(c2ccccc2)c2nnnn2C)cs1)c1ccccc1` [Example 36]?
**A.** Efficacy % (Phytophthora infestans): 95%; log p (logP(HCOOH) by HPLC): 3.76

**Q.** With `Cc1nnnn1C(=NOCc1csc(NC(=O)C(C)OC2CCCCC2)n1)c1ccccc1` (stereo not shown) [Example 94] as the molecule, how does the Efficacy % (Phytophthora infestans) read?
**A.** 93%

**Q.** And the log p (logP(HCOOH) by HPLC)?
**A.** 4.21

**Q.** What does the source list for `CC1CCC(C(C)C)C(OCC(=O)Nc2nc(CON=C(c3ccccc3)c3nnnn3C)cs2)C1` (stereo not shown) [Example 107]?
**A.** Efficacy % (Phytophthora infestans): 95%; log p (logP(HCOOH) by HPLC): 5.39

**Q.** With `Cn1nnnc1C(=NOCc1csc(NC(=O)COC2CCC2)n1)c1ccccc1` [Example 80] as the molecule, how does the Efficacy % (Phytophthora infestans) read?
**A.** 90%

**Q.** And the log p (logP(HCOOH) by HPLC)?
**A.** 3.19

**Q.** Which Efficacy % (Phytophthora infestans) does the source give for `CON=C(C(=O)Nc1cccc(CON=C(c2ccccc2)c2nnnn2C)n1)c1ccc(Cl)cc1` [Example 3] here?
**A.** 75%

**Q.** And the log p (logP(HCOOH) by HPLC)?
**A.** 4.51

**Q.** Which results are given for `CC(OC1CCCC1)C(=O)Nc1cccc(CON=C(c2ccccc2)c2nnnn2C)n1` (stereo not shown) [Example 98]?
**A.** Efficacy % (Phytophthora infestans): 98%; log p (logP(HCOOH) by HPLC): 4.11

**Q.** For `Cc1nnnn1C(=NOCc1csc(NC(=O)COC2CCC2)n1)c1ccccc1` [Example 82], which Efficacy % (Phytophthora infestans) is on record?
**A.** 90%

**Q.** And the log p (logP(HCOOH) by HPLC)?
**A.** 3.25

**Q.** Which Efficacy % (Phytophthora infestans) does the source give for `CON=C(C(=O)Nc1nc(CON=C(c2ccccc2)n2nnnc2C)cs1)c1ccc(Cl)cc1Cl` [Example 23] here?
**A.** 90%

**Q.** What about the log p (logP(HCOOH) by HPLC) of the same molecule?
**A.** 4.49

**Q.** With `C#CCOCC(=O)Nc1cccc(CON=C(c2ccccc2)c2nnnn2C)n1` [Example 4] as the molecule, how does the Efficacy % (Phytophthora infestans) read?
**A.** 85%

**Q.** And the log p (logP(HCOOH) by HPLC)?
**A.** 2.8

**Q.** Which Efficacy % (Phytophthora infestans) does the source give for `Cc1nnnn1C(=NOCc1csc(NC(=O)OCCC2CCCCC2)n1)c1ccccc1` [Example 24] here?
**A.** 88%

**Q.** What about the log p (logP(HCOOH) by HPLC) of the same molecule?
**A.** 4.8

**Q.** Which Efficacy % (Phytophthora infestans) does the source give for `C=CCCOC(C)C(=O)Nc1nc(CO/N=C(/c2ccccc2)n2nnnc2C)cs1` (stereo not shown) [Example 43] here?
**A.** 95%

**Q.** And the log p (logP(HCOOH) by HPLC)?
**A.** 3.53

**Q.** For `C#CCOCC(=O)Nc1cccc(CON=C(c2ccccc2)n2nnnc2C)n1` [Example 22], which Efficacy % (Phytophthora infestans) is on record?
**A.** 70%

**Q.** What about the log p (logP(HCOOH) by HPLC) of the same molecule?
**A.** 2.86

**Q.** Which Efficacy % (Phytophthora infestans) does the source give for `Cn1nnnc1C(=NOCc1csc(NC(=O)OC2CC3CCC2(C)C3(C)C)n1)c1ccccc1` (stereo not shown) [Example 104] here?
**A.** 93%

**Q.** Which Efficacy % (Phytophthora infestans) does the source give for `Cn1nnnc1C(=NOCc1csc(NC(=O)OC2CC3CCC2(C)C3(C)C)n1)c1cccc(F)c1` (stereo not shown) [Example 105] here?
**A.** 80%
